We go through four molecules from US5733929A, “Pharmaceutical composition for treating or preventing allergic rhinitis” (Takeda Chemical Industries, Ltd., priority 1993, dated 1998).

Structures can show the parent of a compound that is named as a salt.

In series [1] the test system is allergic rhinitis. Briefly: Experiment 2: effects of perfusion in nasal cavities on allergic rhinitis in guinea pigs (pigment leakage). The format is in vivo. The following applies: 5 mg/kg perfused in nasal cavity; increase Period-3 minus Period-1; 16 animals; 5% G.A. 13.83 ± 2.61. As to the method:
Effects of perfusion in nasal cavities on allergic rhinitis in guinea pigs
Aerosol of 1% ovalbumin (OA) solution in physiological saline was prepared using an ultrasonic nebulizer (TUR-3200, Nippon Kohden, Tokyo, Japan), and administered to Hartley male guinea pigs weighing 300 to 350 g (Seiwa Jikken Dohbutsu, Fukuoka, Japan) by inhalation for 10 minutes in a polyacrylamide box (20×28×20 cm) once a week (twice in all). Thus the guinea pigs were sensitized. One week after the sensitization, the guinea pigs were anesthetized with pentobarbital sodium (30 mg/kg, i.p.) and fixed on their backs on a thermal pad (Deltaphase isothermal pad, Braintree Scientific, Inc.). The cervical part was opened along the median line, the trachea was opened, a trachea cannula was inserted into the pulmonary side, and the esophagus was ligated. On the other hand, a polyethylene tube (5.5 cm in length, 2.3 mm in outer diameter, Hibiki) connected to an infusion pump was inserted at the nasal side into the choana. […] The resulting perfusion solution was centrifuged at 15,000× g for 1.5 minutes, and the amount of the pigment in the supernatant was determined by absorbance at 610 nm. The activity of the drug was evaluated using as an indication the increased amount of the leaked pigment at Period-3 (i.e., (the amount of the pigment at Period-3)--(the amount of the pigment at Period-1)).

Series [2] deals with T1, human platelet-derived TXA2 receptor (Homo sapiens, UniProt P21731).
T1 construct: expressed in transfected cells
T1 sequence (P21731 1-343): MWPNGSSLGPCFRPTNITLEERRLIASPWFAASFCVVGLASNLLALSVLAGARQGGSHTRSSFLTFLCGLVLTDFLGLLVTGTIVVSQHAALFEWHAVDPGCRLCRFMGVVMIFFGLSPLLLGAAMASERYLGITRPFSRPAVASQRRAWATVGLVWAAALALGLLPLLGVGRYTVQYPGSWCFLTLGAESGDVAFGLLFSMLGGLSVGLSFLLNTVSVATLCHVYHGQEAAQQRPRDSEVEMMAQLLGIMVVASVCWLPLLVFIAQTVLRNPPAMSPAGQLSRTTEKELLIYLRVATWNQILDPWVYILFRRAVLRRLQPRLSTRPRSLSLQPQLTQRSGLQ
As to the kind of experiment: binding of U-46619 to human platelet-derived TXA2 receptor expressing cells (TCHO-25), receptor assay. From the text: Effects on the binding of U-46619 (11-9-epoxymethane-PGH2, a substance having thromboxane A2 -like activity) to human platelet-derived TXA2 receptor expressing cells
A vector containing cDNA encoding TXA2 receptor (TXA2 .cndot.R) and a vector containing cDNA encoding dihydrofolate reductase were mixed in a ratio of 10:1, and are transferred simultaneously to Chinese hamster ovary (CHO) cells by the calcium phosphate method. Two days later, these cells were inoculated into a medium containing 0.3 mM proline, 10% bovine fetus serum and 0.1 μM methotrexate in a concentration of 2000 cells/well and incubated.

In series [3] the test system is intranasal pressure increase induced by inhalation of antigens. As to the kind of experiment: Experiment 5: intranasal pressure increase induced by inhalation of antigens in actively sensitized (involving IgE participation) guinea pigs. The format is in vivo. The settings on record: p.o.; for Internasal pressure increase AUC(0-30 min): 5% G.A. 339 ± 55. The procedure: Hartley male guinea pigs weighing 300 to 400 g (Nippon SLC, Shizuoka, Japan) were anesthetized with pentobarbital (30 mg/kg, i.p.) and fixed on their backs. The cervical part was opened along the median line, the trachea was opened for maintaining respiration, and a cannula was inserted. A tube (JMS cutdown tube, 2.5 mm in outer diameter and 3.5 cm in length) was inserted from the opened site of the trachea into the nasal cavity. The other end of the tube was connected to a respirator (Harvard respirator, model 683), and air was sent into the nasal cavity at a tidal volume of 4 ml and a respiration rate of 70/min. Aerosol of U-46619 (30 μg/ml) solution was prepared using an ultrasonic nebulizer and sent into the nasal cavity for 3 minutes. Changes of the intranasal pressure were determined with a differential pressure transducer connected to the branch of the tube. To prevent air leakage into the oral cavity, the oral cavity was closed with an adhesive (Aron alpha, trade name). Effects on intranasal pressure increase induced by inhalation of antigens in actively sensitized (involving IgE participation) guinea pigs Hartley male guinea pigs weighing 300 to 400 g (Nippon SLC, Shizuoka, Japan) were immunized by a modified method of the method of Levine et al. Sensitization was carried out by intraperitoneally administering physiological saline (1 ml) containing ovalbumin (OA)(10 μg) and aluminium hydroxide gel (5 mg) 4 times every 2 weeks. The sensitized guinea pigs were used one week after the final administration. These guinea pigs were anesthetized with pentobarbital (30 mg/kg, i.p.). In a similar manner to that described in Experiment 4, changes of intranasal pressure were determined. Aerosol of OA (3%) was prepared using an ultrasonic nebulizer provided between the respirator and the intranasal tube, and sent into the nasal cavity for 3 minutes. The test drug was suspended in 5% G.A. solution and orally administered one hour before the OA inhalation.

Series [4] deals with ICR male mice. As to the kind of experiment: oral toxicity in mice. Type of series: in vivo. The settings on record: 1000 mg/kg, five ICR male mice (5 weeks old), 7 days. From the text:
The compounds to be used as an active ingredient in the present invention have low toxicity. […] The compound to be used as an active ingredient in the present invention can be used as it is or as a pharmaceutical composition (e.g., tablets, granules, capsules including soft capsules and microcapsules, liquid preparations, injections, suppositories, nasal drops, eye drops, etc.) prepared by mixing the compound with a per se known pharmaceutically acceptable carrier, diluent, excipient, etc., for treating or preventing allergic rhinitis, particularly nasal congestion in a mammal. The administration route may be oral or parenteral. The dose varies with the subject to be administered, administration route, symptoms, etc. For example, for oral administration to an adult patient, a unit dose of normally about 0.1 mg/kg to 20 mg/kg body weight, preferably 0.1 mg/kg to 10 mg/kg body weight is advantageously administered about once or twice a day.

Series [5] relates to intranasal pressure increase induced by antigen inhalation. Briefly: Experiment 6: intranasal pressure increase induced by antigen inhalation in guinea pigs sensitized by antigen inhalation. Type of series: in vivo. The settings on record: p.o.; for Increase of intranasal pressure AUC(0-25 min): 5% G.A. 278 ± 35. The procedure: Hartley male guinea pigs weighing 300 to 400 g (Nippon SLC, Shizuoka, Japan) were anesthetized with pentobarbital (30 mg/kg, i.p.) and fixed on their backs. The cervical part was opened along the median line, the trachea was opened for maintaining respiration, and a cannula was inserted. A tube (JMS cutdown tube, 2.5 mm in outer diameter and 3.5 cm in length) was inserted from the opened site of the trachea into the nasal cavity. The other end of the tube was connected to a respirator (Harvard respirator, model 683), and air was sent into the nasal cavity at a tidal volume of 4 ml and a respiration rate of 70/min. Aerosol of U-46619 (30 μg/ml) solution was prepared using an ultrasonic nebulizer and sent into the nasal cavity for 3 minutes. Changes of the intranasal pressure were determined with a differential pressure transducer connected to the branch of the tube. To prevent air leakage into the oral cavity, the oral cavity was closed with an adhesive (Aron alpha, trade name). Effects on intranasal pressure increase induced by antigen inhalation in guinea pigs sensitized by antigen inhalation Aerosol of 1% OA solution in physiological saline was prepared and administered to Hartley male guinea pigs weighing 300 to 400 g (Nippon SLC, Shizuoka, Japan) by inhalation for 10 minutes. One week later, inhalation was performed again for sensitization. These animals were used as sensitized animals. In a similar manner to that described in Experiment 4, intranasal pressure was determined. The test drug was suspended in 5% G.A. solution and orally administered one hour before the antigen induction.

Series [6] has as its system allergic experimental rhinitis. Briefly: Experiment 1: inhibitory effects on allergic experimental rhinitis in guinea pigs (pigment leakage after antigen perfusion). The settings on record: 30 mg/kg, oral, 1 hour before antigen. Type of series: in vivo. The procedure:
Inhibitory effects on allergic experimental rhinitis in guinea pigs
Hartley male guinea pigs weighing 350 to 450 g were used. Aerosol of 1% ovalbumin (OA) in physiological saline was prepared using an ultrasonic nebulizer and administered to the guinea pigs by inhalation for 10 minutes. Thus the guinea pigs were sensitized. One week later, the antigen was administered again by inhalation, and the guinea pigs were used for this experiment after one week. The following experiment procedures were carried out by reference to the method of Kojima et al. (Allergy, Vol. 35, p. 180-187 (1986)).
The sensitized guinea pigs were anesthetized by administering pentobarbital (30 mg/kg) intraperitoneally. […] The collected sample was centrifuged at 3000 rpm for 10 minutes, and the absorbance of the supernatant at 620 nm was measured with a spectrophotometer to calculate the pigment concentration.
The drug was suspended in 5% gum arabic (G.A.) solution and was orally administered 1 hour before the antigen induction. The inhibitory ratio (%) was calculated as a ratio of the amount of the leaked pigment to the maximum amount of the leaked pigment in the control group 10 minutes after the antigen induction. […]

`CC1=C(C)C(=O)C(C(CCCCCC(=O)O)c2ccccc2)=C(C)C1=O` (racemic) [Compound 1, (±)-7-(3,5,6-trimethyl-1,4-benzoquinon-2-yl)-7-phenylheptanoic acid]: the “Pigment concentration” value in series [1] worked out at 8.87 ± 2.47 µg/mL. In series [2] (TCHO-25 cells), the “inhibition of the binding of U-46619 to TXA2 receptor (mode)” value is “competitively inhibited”. Besides, the “Internasal pressure increase AUC(0-30 min)” value is reported as 208 ± 44 in series [3] (0.3 mg/kg, 12 animals); 241 ± 32 in series [3] (3.0 mg/kg, 12 animals); 183 ± 36 in series [3] (30 mg/kg, 13 animals, *P < 0.05). For the same molecule, the mortality result in series [4] was “no mice died”. The “Increase of intranasal pressure AUC(0-25 min)” value in series [5] (0.3 mg/kg, 7 animals) is 246 ± 44; in series [5] (3.0 mg/kg, 8 animals) it was 201 ± 41; in series [5] (30 mg/kg, 7 animals, *P < 0.05) it was 143 ± 19.
Consider `CN1CCCC(n2nc(Cc3ccc(Cl)cc3)c3ccccc3c2=O)CC1` (stereo not shown) [Azelastine hydrochloride, reference compound], for which the “Internasal pressure increase AUC(0-30 min)” value in series [3] (1.0 mg/kg, 8 animals, **P < 0.01) turned out to be 92 ± 14. Besides, the “Inhibitory ratio (%)” value in series [3] (1.0 mg/kg, AUC(0-30 min), 8 animals) amounted to 73%; in series [5] (1.0 mg/kg, AUC(0-25 min), 7 animals), 44%. Besides, in series [5] (1.0 mg/kg, 7 animals, marked **), the “Increase of intranasal pressure AUC(0-25 min)” value is reported as 157 ± 35.
Turning to `CCCCC[C@H](O)/C=C/[C@@H]1[C@@H](C/C=C\CCCC(=O)O)[C@H]2CO[C@@H]1C2` [Compound U-46619, 11-9-epoxymethane-PGH2, reference compound], the Kd in series [2] (U-46619 based on TXA2 receptor on TCHO-25 cells, read-out: dissociation constant) is 31 nM.
On to `COc1ccc(CN(CCN(C)C)c2ccccn2)cc1` [Mepyramine], for which the “Inhibitory ratio (%)” value is recorded as 81% in series [6] (Table 1, 9 animals) and 77% in series [6] (Table 2, 10 animals, **P < 0.01).
